Experimental data: patent publication US20220265700A1, “METHODS TO PREVENT, INHIBIT OR TREAT INTERVERTEBRAL DISC DEGENERATION” (University of Iowa Research Foundation, priority 2021, published 2022)
Read-outs that look alike come from different tables or passages of the source.

Tests used:
JNK = assay: Immunofluorescence staining of phosphorylated JNK; assay type: cell-based, rabbit
ERK = assay: Immunofluorescence staining of phosphorylated ERK; assay type: cell-based, rabbit
p38 = assay: Immunofluorescence staining of phosphorylated p38; assay type: cell-based, rabbit
nucleus pulposus tissues = assay: DHE staining, ex vivo organ culture of transversely cut intervertebral discs; assay type: cell-based, rabbit; settings: 10 mM NAC or […] amobarbital for 24 h after cutting
Nrf2 [1] = assay: Nrf2 staining, ex vivo organ culture of transversely cut intervertebral discs; assay type: cell-based, rabbit; settings: 10 mM NAC or […] amobarbital for 24 h after cutting
nucleus pulposus (NP) = assay: DHE staining of IVDs exposed to 100 μM tBHP; assay type: cell-based, rabbit; settings: 100 μM tBHP 30 minutes, then 10 mM NAC 24 hours
SOD2 and Nrf2 = SOD2 and Nrf2 IHC staining of tBHP-exposed IVDs; assay type: cell-based, rabbit; settings: 100 μM tBHP 30 minutes, then 10 mM NAC 24 hours
nucleus pulposus cells [2] = settings: for cell viability: normalized by control
nucleus pulposus cells [3] = assay: Mitochondrial ROS production, MitoSOX Red; assay type: cell-based, rabbit
nucleus pulposus cells [4] = assay: Mitochondrial membrane potential, JC-1 assay; assay type: cell-based, rabbit; settings: 50 μM tBHP 1 h
rabbit NP cells = assay type: cell-based; settings: exposed to 100 μM tBHP
nucleus pulposus cells [5] = settings: 100 μM tBHP exposure
[6] = test system: human nucleus pulposus cells; settings: 400 μM tBHP for 6 h (Xu et al. 2019); cited from earlier work
[7] = test system: rat nucleus pulposus cells; settings: 100 μM tBHP for 24 h (2019 report); cited from earlier work
NP cells = assay: TUNEL assay, ex vivo IVD puncture model; assay type: cell-based, rabbit; settings: 7 days; Amo in hydrogel after disc puncture
Source text: Overall study design is illustrated in FIG. 15A. A total of 36 rabbit thoracic and lumbar motion segments (T11/L2) including two vertebral bodies and one IVD were obtained from New Zealand White (NZW) rabbit cadavers (approximately 10-months old) without radiographic evidence of trauma by X-ray. Under sterile conditions, the segments were dissected by removing the posterior elements and soft tissues. The discs were punctured using a 20-gauge needle with 3 mm-depth, and the needle was held in place for 5 seconds. Discal injury was confirmed by herniated nucleus pulposus (NP) through the needle hole. After the puncture, 5 μl hydrogel (17% F-127/0.425% HA) with or without 2.5 mM Amo was injected into the NP using a 30-gauge Hamilton syringe with a stopper (Thermo Fisher Scientific, Waltham, Mass., USA). […]
Apoptotic cells in the NP were detected using a terminal deoxynucleotidyl transferase dUTP nick end labelling (TUNEL) assay (Abcam, Cambridge, Mass., USA) according to the manufacturer's instructions. […] Then, the sections were labeled with terminal transferase (TdT) enzyme for 1.5 h, detected with blocking buffer for 30 min, developed with working 3,3′-diaminobenzidine (DAB) solution for 15 min, and counterstained with methyl green for 1.5 min. After scanning images, the number of positive cells in each tissue was counted and normalized by the data from the 2-days intact group.

[8] = Amo stability in HA hydrogel according to USP guidelines; assay type: physicochemical; settings: mixed with Gel-One HA hydrogel, data not shown
Source text: Amo is primarily applied as a sedative-hypnotic to treat sleep disorder and as a preanesthetic agent.

Nrf2 [9] = assay: Nrf2 staining in NP cells under tBHP-induced oxidative stress; settings: pre-treated with […] amobarbital 2 h, then 50 μM tBHP 1 h
[10] = 10 mM NAC, […] amobarbital or 20 μM inhibitor, 50 μM tBHP 1 h

C[S+]([O-])c1ccc(-c2nc(-c3ccncc3)c(-c3ccc(F)cc3)[nH]2)cc1 (stereo not shown) [SB203580]
phosphorylation of JNK vs. tBHP (JNK): minimized the phosphorylation

CC(=O)N[C@@H](CS)C(=O)O [NAC, N-acetylcysteine]
phosphorylation of ERK vs. tBHP (ERK; [10]): inhibited the phosphorylation
phosphorylation of JNK vs. tBHP (JNK; [10]): inhibited the phosphorylation
phosphorylation of p38 vs. tBHP (p38; [10]): inhibited the phosphorylation
DHE dye oxidation (ROS) in injured NP tissues (nucleus pulposus tissues): dramatically reduced dye oxidation
Nrf2 expression in the cytosol compared with injured control group (Nrf2 [1]): approximately 6.8 times
Nrf2 translocation to the nucleus after injury (Nrf2 [1]): prevented
DHE positive cells compared with non-treated control (nucleus pulposus (NP)): dramatic reduction
oxidative damage in NP cells by SOD2 and Nrf2 IHC staining (SOD2 and Nrf2): reduced oxidative damage
protective effect on cell viability (cell death) (nucleus pulposus cells [2]; 0.1-10 mM pre-treatment 2 h prior to 50 μM tBHP, until 24 h): significantly prohibited the cell death
concentration at which no cytotoxicity was exhibited (nucleus pulposus cells [2]; New Zealand White, rabbit, 2 h): lower than 10 mM

CC(C)(C)OO [tBHP, tert-butyl hydrogen peroxide]
superoxide production (MitoSOX Red) (nucleus pulposus cells [3]; 25 μM tBHP): no superoxide production was observed
ratio of J-aggregate form to monomeric form vs. control (nucleus pulposus cells [4]): significantly reduced
phosphorylation of ERK vs. control (ERK; 50 μM tBHP 1 h): significantly phosphorylated
rate of phosphorylated JNK compared with control (JNK; 50 μM tBHP 1 h): approximately 5.9 times
rate of phosphorylated p38 compared with control (p38; 50 μM tBHP 1 h): ~9.7 times
basal oxygen consumption rate (OCR) (rabbit NP cells): increased
cell viability (nucleus pulposus cells [2]; 25 μM tBHP, 1 h): 90.8%
cell viability (nucleus pulposus cells [2]; 50 μM tBHP, 1 h): 77.1%
cell loss (viability) (nucleus pulposus cells [2]; 100-400 μM tBHP, 1 h): 70.6-72.9%
apoptotic/necrotic cells after tBHP exposure (nucleus pulposus cells [5]): became apoptotic and/or necrotic cells
viability [6]: 54.3%
cell apoptosis relative to control [7]: approximately 7 times

COc1cccc(-c2cc(=O)c3ccccc3o2)c1N [PD98059]
phosphorylation of ERK vs. tBHP (ERK): minimized the phosphorylation

CCC1(CCC(C)C)C(=O)NC(=O)NC1=O [amobarbital]
MitoSOX-stained cells (imaging) (nucleus pulposus cells [3]): large decrease
phosphorylation of ERK vs. tBHP (ERK): inhibited the phosphorylation
phosphorylation of JNK vs. tBHP (JNK): inhibited the phosphorylation
phosphorylation of p38 vs. tBHP (p38): inhibited the phosphorylation
Nrf2 expression in the cytosol compared with injured control group (Nrf2 [1]): ~7.8 times
Nrf2 translocation to the nucleus after injury (Nrf2 [1]): prevented
TUNEL-positive (apoptotic) NP cells vs. HG (NP cells): diminished number of cell apoptosis
Amo stability in hydrogel [8]: stability in human biologic fluids and various conditions
protective effect on cell viability (cell death) (nucleus pulposus cells [2]): significantly prohibited the cell death
Nrf2 expression in the cytosol of NP cells (Nrf2 [9]): close to control
